Laboratory results taken from patent publication US20070225245A1, “Viral vector driven mutant bacterial cytosine deaminase gene and uses thereof” (priority 1998, published 2007).
≈ marks a conversion by molar mass, not a printed value.

Columns and labels:
[1] = tested on: Intracranial D54MG gliomas; assay: Survival, intracranial glioma, HSV and 5-FC; format: in vivo, athymic nude mice; details: saline and 5-FC
Description: (§1) Two days later, mice were begun on twice daily intraperitoneal injections of saline (1 ml) or 5-FC (500 mg/kg). Mice were followed for survival.
(§2) Studies were undertaken to determine the efficacy of the HSV construct, M012, in in vivo murine glioma models. […] The median survival of animals receiving saline plus 5-FC was 34 days. In a similar study with the D54MG intracranial model, median survival of mice injected intratumorally with M012 and administered 5-FC was 40 days, compared to 27 days with M012 plus saline and 19 days with saline and 5-FC (FIG. 14).

[2] = tested on: MIA PaCa-2 xenografts; assay: Subcutaneous human pancreatic tumor xenograft, tumor growth; format: in vivo, athymic nude mice
Description: Treatment was started at the time of established tumor growth (Day 0 equal to 17 days after tumor cell injection). Animals were injected i.t. with PBS or 5×10^7 TCID50 of AdbCD-D314A on Days 0, 7, and 14, and then irradiated with 2 Gy on Days 1, 8 and 15 using a ^60Co gamma irradiator, and 400 mg/kg of 5-FC was i.p. administered at qd×5/week for 3 weeks starting on Day 1. Data points represent the mean change in tumor surface area relative to Day 0 for each group of animals.
To evaluate in vivo therapeutic efficacy of the combination of AdbCD-D314A/5-FC and radiation treatment, 16×10^6 MIA PaCa-2 tumor cells were resuspended 1:1 (v/v) in Matrigel (Becton Dickinson) and injected s.c. into female athymic nude mice. Treatment was started 17 days post-tumor cell injection at the time of established tumor growth, noted as Day 0. Animals were randomly divided into groups receiving different treatments: 1) AdbCD-D314A plus 5-FC; 2) AdbCD-D314A plus 5-FC in combination with radiation; 3) PBS plus 5-FC in combination with radiation; 4) PBS plus 5-FC. Two groups of mice (# 1 and 2) were injected i.t. with 5×10^7 TCID50 AdbCD-D314A on Days 0, 7, and 14. […] Tumor size was monitored twice a week using digital Vernier calipers. Tumor surface areas were calculated as width×length (mm^2).

[3] = tested on: Intracranial U87MG Human Gliomas; assay: Survival, intracranial glioma, Ad, 5-FC and external beam radiation; format: in vivo, athymic nude mice
Description: This therapeutic effect of AdCMVCD/5-FC on glioma cells could be further enhanced with concurrent fractionated ionizing external beam radiation (Table 9). U87MG cells (5×10^5) were stereotactically injected into the right frontal cortex of athymic nude mice. Tumors were established for 5 days before intratumoral injection of AdCMVCD (10^9 pfu/mouse). Mice were then treated IP with 5-FC (500 mg/kg bid) on days 2-9 post infection, irradiated with local external beam 330 cGy ^60Co radiation on days 4 and 7 post-infection, and monitored for survival. Kaplan-Meier survival curves and median and 20% survival values were calculated by standard methods.

[4] = tested on: human pancreatic cancer cells; details: Uninfected cells; 5-FC at 764 μg/ml
Description: To measure the cytotoxicity of 5-FU and 5-FC, glioma cells or pancreatic cancer cells were plated into 96-well tissue culture plates at 5×10^3 cells/well, and allowed to adhere overnight. Next day, serial dilutions of 5-FU or 5-FC were added directly to cells. Cells were incubated for 5 days, and relative cell density was determined using a crystal violet staining assay. Cell culture medium was removed and surviving cells were then fixed and stained with 2% (w/v) crystal violet (Sigma-Aldrich) in 70% ethanol for 3 h at room temperature. The plates were washed extensively, air-dried and optical density was measured at 570 nm using a V Max plate reader (Molecular Devices Corporation, Sunnyvale Calif.). Fractional cell survival at each drug concentration was calculated as the ratio of absorbance at 570 nm of cells incubated in the presence versus absence of drug, corrected for background absorbance of media alone. Fractional cell survival data were plotted against drug concentration and IC50 values extrapolated by piecewise linear regression as the concentration of drug producing a 50% reduction in corrected absorbance.

[5] = tested on: Intracranial U87MG gliomas; assay: Survival, intracranial glioma, HSV and 5-FC; format: in vivo, SCID mice; details: saline plus 5-FC
Description: as §1, §2

[6] = tested on: U251MG; assay: 5-FC or 5-FU toxicity (MTS) in Ad-infected cells; format: cell-based; details: Homo sapiens, U-251, Table 14, MOI 0
Description: (§3) Next, cytosine deaminase was administered to glioma cells via the replication deficient adenovirus. Glioma cells plated in T25 flasks were infected with AdCMVCD at several multiplicities of infection (MOI 0-300 pfu/cell) for 1 h at 37° C. At twenty-four hours post-infection, cells were harvested, replated at 5×10^3 cells/well in 96 well plates, and allowed to adhere overnight. […]
(§4) To test this hypothesis, 5-FC toxicity (IC50) was compared in cells infected with AdCMVCD versus AdCDUPRT. […] In Table 13 mean 5-FC IC50 was obtained from 2-5 separate experiments. Cells were infected with AdCMVCD or AdCDUPRT at the indicated MOI (pfu/cell) for 1 h at 37° C. 5-FC toxicity was determined by MTS assay 5 days after drug addition.

[7] = tested on: U87MG; assay: 5-FC or 5-FU toxicity (MTS) in Ad-infected cells; format: cell-based; details: Homo sapiens, U-87 MG, Table 14, MOI 0
Description: as §3, §4

[8] = tested on: D54MG; assay: 5-FC or 5-FU toxicity (MTS) in Ad-infected cells; format: cell-based; details: Homo sapiens, Table 14, MOI 0
Description: as §3, §4

[9] = tested on: Neuro-2a murine neuroblastoma cells; assay: HSV replication in vitro, plaque titration on Vero cells; format: cell-based; details: 50 μM 5-FU in growth medium; first evident at 48 h post-infection
Description: M012 replication was compared to R3659 replication over time in murine Neuro-2a tumor cells at both high (5.0) and low (0.1) MOI. Infected cells were grown in either growth medium alone or growth medium containing 5-FC (500 μM) or 5-FU (50 μM) by determining viral titers at 12, 24, 48, 72, and 96 h post-infection in the presence or absence of 500 μM 5-FC or 50 μM 5-FU. Virus recovery at the different time points was determined by titering on Vero cells. Experiments were performed in duplicate. Inhibition was most significant at high MOI, with P=0.002.
To establish replication competence of M012 in murine tumor cell lines in vitro, Neuro-2a murine neuroblastoma cells were infected with either the parent Dg134.5 HSV, R3659, or M012 using a low (0.1) or high (5.0) MOI. To determine if high concentrations of 5-FC might interfere with HSV replication, cells were incubated in the presence of either 500 μM 5-FC or 50 μM 5-FU, or media alone and infected cells were harvested at 12, 24, 48, 72, and 96 h post-infection. Total PFU recovered at each time point was determined by plaque titration on Vero cells (FIG. 9). At both MOI, M012 replication in DMEM alone was similar to its parent virus, R3659. […] The addition of 5-FC to the growth medium following infection inhibited M012 replication, but had no effect on R3659 replication at either MOI. […]

[10] = Saline (no virus) + 5-FC, no XRT

Row | SMILES | median survival [1] [days] | mean time to tumor doubling ([2]; PBS plus 5-FC) [days] | mean time to tumor doubling ([2]; PBS plus 5-FC in combination with radiation) [days] | Survival 20% ([3]; Saline (no virus) + 5-FC + XRT) | Survival Median ([3]; Saline (no virus) + 5-FC + XRT) | Survival 20% [3, 10] | Survival Median [3, 10] | cytotoxicity [4] | median survival [5] [days] | IC50 [6] [µg/mL] | IC50 [7] [µg/mL] | IC50 [8] [µg/mL] | reduction in replication of M012 or R3659 [9]
1 | Nc1nc(=O)[nH]cc1F [5-FC, 5-fluorocytosine] | 19 | 14 | 30 | 32 | 31 | 55 | 28 | no detectable cytotoxicity | 34 | – | – | – | –
2 | O=c1[nH]cc(F)c(=O)[nH]1 [5-FU, 5-fluorouracil] | – | – | – | – | – | – | – | – | – | 0.4 (≈ 3.08 µM) | 1.8 (≈ 13.8 µM) | 1.3 (≈ 9.99 µM) | 1.0-2.0 log
